Results from article PMC8802628, “Selective activation of PFKL suppresses the phagocytic oxidative burst” (Cell, 2021).

Assays:
E. coli = test: Phagocytosis assay: E. coli C.F.U. recovered from PMNs; format: cell-based, human; conditions: neutrophils pretreated 30 min
Procedure: Neutrophils (1 × 10^6) were cultured in 6-well tissue in RPMI medium containing DMSO vehicle, 0.5 μM NA-11, 0.5 μM NA-4, 100 μM Apocynin or 100 μM thionicotinamide (TN) for 30 min. E. coli grown in LB broth overnight (2 mL) were opsonized with human serum (1 mL pooled from three donors) for 1 h at room temperature. Opsonized bacteria were washed with PBS, resuspended in LB broth to an OD600of 0.1 and then added to cultured neutrophils at an MOI of 1 for 30 min. Cells were washed with medium three times and then cultured with 300 μg/mL gentamicin for 2 h to kill any extracellular bacteria. Cells were then washed again, twice with medium and once with PBS. To release phagocytosed bacteria, neutrophils were lysed in 0.05% saponin in PBS. Lysates were passed through a 25’ gauge needed several times and the number of viable phagocytosed bacteria was determined by colony counting.

[1] = target: T1, 14-3-3 protein beta/alpha (YWHAB) (Homo sapiens, UniProt P31946); test: PISA of neutrophil lysates (Data S2); format: binding; conditions: Comparison NA11_MidT-DMSO_MidT
T1 construct: endogenous in cells; host or cells: human blood leukocytes, labelled live
T1 sequence (P31946 whole entry): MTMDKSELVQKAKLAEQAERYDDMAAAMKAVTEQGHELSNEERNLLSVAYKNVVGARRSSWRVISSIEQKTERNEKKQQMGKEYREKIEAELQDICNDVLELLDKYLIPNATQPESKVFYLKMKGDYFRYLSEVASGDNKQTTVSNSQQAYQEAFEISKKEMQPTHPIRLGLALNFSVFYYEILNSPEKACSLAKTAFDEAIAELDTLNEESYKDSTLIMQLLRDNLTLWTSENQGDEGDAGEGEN
Procedure: (§1) Neutrophils (3 × 10^7) were treated with 50 nM PMA for 20 min. Cell were washed twice in D-PBS, resuspended in KB buffer (25 mM Tris-HCL pH 7.5, 1 mM DTT, 10 mM MgCl2) and frozen in liquid nitrogen. Lysates were prepared by 5-7 freeze-thaw cycles in KB buffer. Protein concentration was determined via Bradford assay and lysates were incubated on ice for 30 min with either 10 μM NA-11 or DMSO vehicle. Samples were analyzed in two formats: (1) classical thermal proteome profiling (TPP) with full melting curves using 16-plex TMT labeling (8 temperatures between 37-65°C), and (2) Proteome Integral Solubility Alteration (PISA) assay with aggregated protein abundance from a defined temperature range using 10-plex TMT labeling (Five replicates 44-58°C). Aliquots (5 mg) were divided and heated at 8 temperatures in the 37-65°C range or 6 temperatures in the 44-58°C range, and cooled on ice for 3 min.
(§2) For TPP, heated lysates from different temperatures were kept separate. For PISA, lysates from different temperatures were combined based on treatment. Samples were centrifuged at 20,000 x g for 20 min at 4°C and supernatants were isolated for analysis. Proteins were denatured in 4 M urea, reduced with 5 mM DTT at 60°C for 20 min, and alkylated with 11 mM iodoacetamide (IAA) for 20 min. Urea was diluted to 2 M with 20 mM HEPES. Proteins were digested with Lys-C (Wako) diluted 1:50 for 3 h at 37°C, and then with Trypsin (PTMScan) diluted 1:100 overnight at 37°C. Peptides were cleaned on C18 Sep-Pak cartridges, 50 mg absorbent (Waters, WAT054960) and labeled with 16-plex TMTpro or 10-plex TMT. Labeled peptides were pooled, cleaned on a C18 Sep-Pak cartridge, and fractionated by offline high pH reversed phase separation and combined into 12 fractions in checkerboard fashion. Peptides were cleared on C18 STAGE-tips before mass spectrometry.
(§3) For the classical TPP, quantitative data from each temperature were used to generate a thermal titration curve and calculate a melting point. PSM level quantitation was log2 transformed and summarized to protein level by aggregating all PSMs from the same primary Uniprot reference, and systematic variation between the treatments was normalized at each temperature. A thermal titration curve was fitted from experimental data for each protein and for each treatment condition using Self-Starting Nls Four-Parameter Logistic Model from stats v3.6.2 in R. Melting point was calculated at the 50% between intensity at the lowest temperature and intensity at the highest temperature. A quality score is calculated for each protein by evaluating R squares, curve slopes and similarity in slopes between the two fitted curves. For the PISA experiment, quantitative data from each replicate of combined temperatures were used to calculate fold changes and p values between the treatment conditions. Quantified PSMs were normalized based on global median abundance among all PSMs, and then summarized to the protein level using statistical package MSstats_3.14.1 ([Choi et al., 2014]). Fold changes and p values were calculated between pre-defined treatment groups by the MSstats package. For the photoaffinity probe based pull-down study, pairwise differential analysis was applied to treatment groups. TMT abundance of all PSMs was aggregated to their respective proteins. Ratios between each treatment group were calculated based on their mean protein abundance from replicates and a Student’s t test was applied to each pair to calculate p values. […]

[2] = target: T2, 14-3-3 protein epsilon (YWHAE) (Homo sapiens, UniProt P62258); test: PISA of neutrophil lysates (Data S2); format: binding; conditions: Comparison NA11_MidT-DMSO_MidT
T2 construct: endogenous in cells; host or cells: human blood leukocytes, labelled live
T2 sequence (P62258 whole entry): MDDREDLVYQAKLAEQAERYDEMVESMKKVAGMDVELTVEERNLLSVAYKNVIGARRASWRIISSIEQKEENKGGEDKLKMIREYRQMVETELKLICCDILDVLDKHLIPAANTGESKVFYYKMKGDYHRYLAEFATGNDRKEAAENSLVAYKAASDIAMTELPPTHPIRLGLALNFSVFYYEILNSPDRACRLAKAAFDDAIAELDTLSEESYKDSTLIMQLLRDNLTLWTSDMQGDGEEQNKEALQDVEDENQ
Procedure: as §1, §2, §3

[3] = target: T3, 14-3-3 protein eta (YWHAH) (Homo sapiens, UniProt Q04917); test: PISA of neutrophil lysates (Data S2); format: binding; conditions: Comparison NA11_MidT-DMSO_MidT
T3 construct: endogenous in cells; host or cells: human neutrophil lysate
T3 sequence (Q04917 whole entry): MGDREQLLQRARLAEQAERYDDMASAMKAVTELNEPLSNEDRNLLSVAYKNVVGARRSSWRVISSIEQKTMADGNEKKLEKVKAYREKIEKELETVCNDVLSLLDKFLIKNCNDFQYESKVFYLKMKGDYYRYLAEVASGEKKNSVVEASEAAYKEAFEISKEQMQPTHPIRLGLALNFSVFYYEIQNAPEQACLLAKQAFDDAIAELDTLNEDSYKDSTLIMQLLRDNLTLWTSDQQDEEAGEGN
Procedure: as §1, §2, §3

[4] = target: T4, 14-3-3 protein gamma (YWHAG) (Homo sapiens, UniProt P61981); test: PISA of neutrophil lysates (Data S2); format: binding; conditions: Comparison NA11_MidT-DMSO_MidT
T4 construct: endogenous in cells; host or cells: human neutrophil lysate
T4 sequence (P61981 whole entry): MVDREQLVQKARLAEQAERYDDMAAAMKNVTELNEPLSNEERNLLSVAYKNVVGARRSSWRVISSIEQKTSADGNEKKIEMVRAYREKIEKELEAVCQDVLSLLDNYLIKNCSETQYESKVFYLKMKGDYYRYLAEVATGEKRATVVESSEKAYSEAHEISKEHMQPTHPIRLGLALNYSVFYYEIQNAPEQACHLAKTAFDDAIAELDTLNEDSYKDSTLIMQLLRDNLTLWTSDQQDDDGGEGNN
Procedure: as §1, §2, §3

[5] = target: T5, 14-3-3 protein theta (YWHAQ) (Homo sapiens, UniProt P27348); test: PISA of neutrophil lysates (Data S2); format: binding; conditions: Comparison NA11_MidT-DMSO_MidT
T5 construct: endogenous in cells; host or cells: human neutrophil lysate
T5 sequence (P27348 whole entry): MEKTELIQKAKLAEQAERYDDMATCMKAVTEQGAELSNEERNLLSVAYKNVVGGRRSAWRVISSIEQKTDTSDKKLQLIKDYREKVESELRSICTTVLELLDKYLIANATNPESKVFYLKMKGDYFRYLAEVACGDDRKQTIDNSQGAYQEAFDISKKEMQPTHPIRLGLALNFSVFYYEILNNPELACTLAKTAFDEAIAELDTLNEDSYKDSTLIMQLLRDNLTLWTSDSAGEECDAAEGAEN
Procedure: as §1, §2, §3

CC(=O)Nc1ccc2c(c1)OCc1cc(-c3ccccc3C#CCCCO)nn1C2 [NA-11]
killing of phagocytosed bacteria (bacterial colonies recovered) (E. coli): produced more bacterial colonies than control neutrophils | log2FC [1]: -0.07 | log2FC [2]: -0.04 | log2FC [3]: 0.0948 | log2FC [4]: 0.0136 | log2FC [5]: -0.18
